In patent US20260356826A1, “SALTS OF AMINO QUINAZOLINE DERIVATIVES” (CHIESI FARMACEUTICI S.P.A., priority 2023, published 2026):
In brackets after ≈: the same amount, converted by molar mass. Entries after “also recorded” stand apart in the source; their conditions may differ. Structures can show the parent of a compound that is named as a salt. Where two headings read alike, the source gives them in different places.

How the values were obtained:
Type in all cases: physicochemical
[1] = Dissolution in simulated oral fluids (FaSSGF, FaSSIF, FeSSIF), DISS Profiler, 37 °C, 24 hours; details: for Maximum solubility: 1440 min
Experimental: The dissolution of mesylate salt Form 2 of the compound A in comparison with the free base Form A of compound A was tested in all simulated oral fluids. The experiments were conducted with DISS Profiler 6 Channel Pion. The experiments were conducted until 24 hours at 37 °C.
The mediums used, namely FaSSGF (Fasted State Simulated Gastric Fluid), FaSSIF (Fasted State Simulated Intestinal Fluid) and FeSSIF (Fed State Simulated Intestinal Fluid) were obtained from Biorelevant.com Ltd. The medium compositions are listed in table 9. The saturated solution concentrations were about 14-15 mg/ml (as free base) in FaSSGF and about 3-4 mg/ml (as free base) in FaSSIF and FeSSIF.

[2] = Formulations with polymer: drug content and appearance; details: for Found conc.: nominal 40 mg/ml
Description: The formulation having a 0.05 M citrate buffer concentration was chosen to be tested with the addition of polymers to investigate the effect due to a potential viscosity increase.
Different percentage of polymers were used, e.g. 5% w/v of polyvinylpyrrolidone (PVP) 40 or 1% w/v HPMC.
The formulations were studied with or without the use of the surfactant D-α-tocopherol polyethylene glycol succinate (Vit. E TPGS, Sigma Aldrich; CAS: 9002-96-4) in 0.05 M citrate buffer at pH 2.5 at the nominal concentration of 40 mg/ml. To prepare the vehicle the proper amount of citric acid was dissolved in water in a volumetric flask, then the pH was increased up to 2.5 using 0.1 M NaOH. Then water was added and brought to the final volume. The polymers PVP 40 (Sigma Aldrich; CAS: 9003-39-8) or HPMC (viscosity 46-60 cP; Sigma Aldrich; CAS: 9004-65-3) were gently dissolved in citrate buffer and left under magnetic stirring for at least 1 hour to their complete hydration. When required, Vit. E TPGS was subsequently added to the media and gently left under magnetic stirring to avoid bubbles formation.
The required volume of vehicle was added to a known amount of Compound A free base Form A or Mesylate salt Form 2, then sonicated at RT for at least 10 min. The formulation was kept under magnetic stirring for at least 10 min before analysis.

[3] = Dissolution in Fasted State Simulated Gastric Fluid (FaSSGF), manual experiment, 37 °C; details: for Solubility: 37 °C
Experimental: The dissolution in Fasted State Simulated Gastric Fluid (FaSSGF) of mesylate salt Form 2 of the compound A of Example 2 and esylate salt Form 1 of Example 6 in comparison with the free base Form A and with other salts was tested by means of manual experiment. The medium for simulated oral fluids was FaSSGF obtained from Biorelevant.com Ltd. The experiments were conducted for 60 minutes at 37 °C.
General preparation of salts: in a round-bottomed flask, 200 mg of compound A free base Form A according to Example 1 (0.52 mmol) were suspended in 5 ml of solvent and stirred at RT. Acetone was employed for bromide, ethanedisulfonate, malonate, sulfate, saccharinate, tosylate, orotate, besylate, hemisulfate, phosphate and tartrate salts; water was employed for chloride salt; ethyl formate was employed for maleate, oxalate, gentisicate, fumarate and mandelate salts; tetrahydrofuran was employed for camphorsulfonate and pamoate salts; isopropyl acetate was employed for 4-hydroxybenzoate and methanol for camphorate salt. The corresponding acid was added under stirring in equimolar amount (except for hemisulfate, added in 0.5 molar amount). After 1 hour the crystalline solid was isolated by filtration, washed with the corresponding solvent (2×1 ml) and dried under nitrogen for 2 hours.
The quantification of the dissolved amount was done by LC/UV system at different checkpoints up to 60 minutes. The saturation solution concentration was around 25-30 mg/ml. […] In a second experiment, the quantification was repeated with saturation solution concentration 170 mg/ml for the mesylate salt Form 2 and 100 mg/ml for the esylate salt Form 1. The results are reported in tables 8A, 8B, 8C, 8D and FIG. 28.

[4] = Comparative stability at 40 °C and 75% RH at open conditions (UPLC/UV and XRPD); details: 40 °C/75% RH open; for % area main peak (LC/UV): 0 days
Experimental: In a second experiment, approximately 100 mg of compound A mesylate salt Form 2 according to Example 2, free base Form A according to Example 1 and esylate salt Form 1 according to Example 6 were stored in three open amber glass vials covered with filter paper to simulate open conditions. The samples were stored in a stability chamber at 75% RH and 40 °C to compare their stability. At the time points 0, 28, 56, 84 days the corresponding samples were removed from the stability chambers. After conditioning at RT, the samples were analyzed by UPLC/UV and XRPD.

[5] = Dynamic vapour sorption (DVS), hygroscopicity
Experimental: Moisture sorption/desorption data were collected on a TA Instruments Vapor Sorption Analyzer Q5000SA.
First step: sorption data was collected in the range 40% to 90% relative humidity (RH).
Second Step: desorption, sorption and desorption data were collected over a range of 0% to 90% RH at 10% RH intervals under a nitrogen purge. Samples were not dried prior to analysis. Equilibrium criteria used for analysis were less than 0.100% weight change in 20 minutes, with a maximum equilibration time of 1 hour if the weight criterion was not met. Data were not corrected for the initial moisture content of the samples. NaBr was used as humidity verification.
Moisture sorption/desorption data were also collected on a ProUmid SnS 23 equipped with a 23 autosampler following Method 1.
In the first step sorption data was collected in the range 0% to 90% RH. Samples were not dried prior to analysis.
In the second Step desorption, sorption and desorption data were collected over a range of 0% to 90% (RH) at 10% RH intervals under a nitrogen purge. Data were not corrected for the initial moisture content of the samples.

[6] = 1% w/v HPMC, 1% w/v Vit. E TPGS, 0.05 M citrate buffer pH 2.5
[7] = 5% w/v PVP, 1% w/v Vit. E TPGS, 0.05 M citrate buffer pH 2.5
[8] = 5% w/v PVP, 0.05 M citrate buffer pH 2.5

pH at the end of the experiment ([1]; FaSSGF)	Time to decrease of solubility / duration of sustained solubility ([1]; FaSSGF, 37 °C)	pH at the end of the experiment ([1]; FaSSIF)	Maximum solubility ([1]; FaSSIF, 37 °C, 24 hours) [mg/mL]	pH at the end of the experiment ([1]; FeSSIF)	Appearance [2, 6]	Mean recovery [2, 6] [%]	Found conc. [2, 6] [mg/mL]	Appearance [2, 7]	Mean recovery [2, 7] [%]	Found conc. [2, 7] [mg/mL]	Appearance [2, 8]	Mean recovery [2, 8] [%]	Found conc. [2, 8] [mg/mL]	Solubility ([3]; first experiment, 60 min) [mg/mL]	% area main peak (LC/UV) [4] [% area]	Compound	Dissolution behaviour ([1]; FaSSGF, 37 °C, 24 hours)	also measured
3.1	approximately 3 hours	6.4	0.04	5.1	Suspension	104.9	41.96	Suspension	111.18	44.47	Suspension	100.3	40.12	6.89 (≈ 18.1 mM)	99.8	COc1cc(-c2ccc(F)cn2)cc2c(N[C@H](C)c3noc(C)n3)ncnc12 [free base Form A, (R)-6-(5-fluoropyridin-2-yl)-8-methoxy-N-(1-(5-methyl-1,2,4-oxadiazol-3-yl)ethyl)quinazolin-4-amine]	steady increase of solubility, but not complete solubilisation	solubility at 24 h ([1]; fassgf, 37 °C, 24 hours, read-out: Maximum solubility): ~11 mg/mL (≈ 28.9 mM); solubility at 24 h ([1]; fessif, 37 °C, 24 hours, read-out: Maximum solubility): 0.1 mg/mL (≈ 0.263 mM); Appearance ([2]; all formulations with polymer): suspensions; Solubility ([3]; first experiment (saturation conc. around 25-30 mg/ml), 5 min): 6.87 mg/mL (≈ 18.1 mM); Solubility ([3]; first experiment, 10 min): 7.01 mg/mL (≈ 18.4 mM); Solubility ([3]; first experiment, 20 min): 6.84 mg/mL (≈ 18 mM); Solubility ([3]; first experiment, 40 min): 6.89 mg/mL (≈ 18.1 mM); Solubility ([3]; second experiment (saturation conc. 170 mg/ml mesylate, 100 mg/ml esylate), 0 min): 0.63 mg/mL (≈ 1.66 mM); Solubility ([3]; second experiment, 15 min): 12.77 mg/mL (≈ 33.6 mM); Solubility ([3]; second experiment, 30 min): 11.89 mg/mL (≈ 31.3 mM); Solubility ([3]; second experiment, 60 min): 13.47 mg/mL (≈ 35.4 mM); Total weight gain (hygroscopicity) ([5]; between 2.5% and 90% RH): about 0.249 wt %; Hygroscopicity ([5]; between 20% and 80% RH): No hygroscopicity was noted; Total water uptake ([5]; between 20% and 80% RH): 0.249%
1.8	at least 24 hours	6.1	0.10	5.0	Solution	111.10	44.44	Solution	112.20	44.87	Solution	116.30	46.51	≥ 25	99.9	COc1cc(-c2ccc(F)cn2)cc2c(N[C@H](C)c3noc(C)n3)ncnc12 [mesylate salt Form 2, (R)-6-(5-fluoropyridin-2-yl)-8-methoxy-N-(1-(5-methyl-1,2,4-oxadiazol-3-yl)ethyl)quinazolin-4-amine]	complete solubilisation was achieved; also recorded: no decrease in the solubility during the 24 hours	Maximum solubility ([1]; FaSSGF, 37 °C, 24 hours): 14.00 mg/mL; Maximum solubility ([1]; FeSSIF, 37 °C, 24 hours): 0.07 mg/mL; solubility at 24 h ([1]; fassif, read-out: Solubility by UPLC/UV/MS at the end of the experiment): 0.03 mg/mL; solubility at 24 h ([1]; fessif, read-out: Solubility by UPLC/UV/MS at the end of the experiment): 0.17 mg/mL; Formulability in solution compared to free base Form A ([2]; with polymers, all excipients considered): better formulability in solution; Solubility ([3]; first experiment (saturation conc. around 25-30 mg/ml), 5 min, listed as mesylate Form 2, 5 min): 31.44 mg/mL; Solubility ([3]; first experiment, 10 min, listed as mesylate Form 2, 10 min): 31.92 mg/mL; Solubility ([3]; first experiment, 20 min, listed as mesylate Form 2, 20 min): 31.65 mg/mL; Solubility ([3]; first experiment, 40 min, listed as mesylate Form 2, 40 min): 31.16 mg/mL; Solubility ([3]; first experiment, 60 min, listed as mesylate Form 2, 60 min): 31.30 mg/mL; Solubility ([3]; second experiment (saturation conc. 170 mg/ml mesylate, 100 mg/ml esylate), 0 min, listed as mesylate Form 2, 0 min): 19.25 mg/mL; Solubility ([3]; second experiment, 15 min, listed as mesylate Form 2, 15 min): 151.67 mg/mL; Solubility ([3]; second experiment, 30 min, listed as mesylate Form 2, 30 min): 159.96 mg/mL; Solubility ([3]; second experiment, 60 min, listed as mesylate Form 2, 60 min): 169.82 mg/mL; Solubility compared to free base Form A ([3]; 60 minutes): consistently higher solubility than the free base Form A during the 60 minutes time; Dissolution ([3]; first experiment, saturation conc. around 25-30 mg/ml): completely dissolved; Stability ([4]; 84 days): surprisingly good stability during stressed storage; Total weight gain (hygroscopicity) ([5]; between 0% and 90% RH): about 1.049 wt %
